# Patent US20230085307A1, “PYRIDAZINONE COMPOUND AND HERBICIDE” (NISSAN CHEMICAL CORPORATION, priority 2019, published 2023)
# Columns and labels:
# late watergrass = assay: Test Example 1: herbicidal activity, application before weed generation under submerged conditions (Table 16, symbol A); assay type: in vivo, late watergrass (Echinochloa oryzicola); conditions: amount of applied herbicide 320 g/ha
# Summary of the method: (§1)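 Submerged Wagner pots (alluvial soil, 4 cm water) sown with weed seeds and planted with 2.5-leaf rice seedlings; emulsifiable concentrate diluted in water applied to water surface on sowing day. Held in greenhouse at 25-30 °C; injury scored 0-5 by herbicidal rate after three weeks.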
# Japanese bulrush = assay: Test Example 1: herbicidal activity, application before weed generation under submerged conditions (Table 16, symbol B); assay type: in vivo, Japanese bulrush (Schoenoplectus juncoides); conditions: amount of applied herbicide 320 g/ha
# Summary of the method: as §1
# oval-leafed pondweed = assay: Test Example 1: herbicidal activity, application before weed generation under submerged conditions (Table 16, symbol C); assay type: in vivo, oval-leafed pondweed (Monochoria vaginalis); conditions: amount of applied herbicide 320 g/ha
# Summary of the method: as §1
# barnyard grass [1] = assay: Test Example 3: herbicidal effect by foliage application, Wagner pot (Table 18, symbol H); assay type: in vivo, barnyard grass (Echinochloa crus-galli); conditions: 320 g/ha
# Summary of the method: (§2)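 Plants were sown in alluvial soil held under 0.1–0.5 cm standing water and grown 14 days in a greenhouse at 25–30 °C. An emulsifiable formulation, water-diluted to the set dose, was then sprayed onto the foliage, and effects were scored three weeks later using previously defined criteria.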
# Chinese sprangletop = assay: Test Example 3: herbicidal effect by foliage application, Wagner pot (Table 18, symbol D); assay type: in vivo, chinese sprangletop (Leptochloa chinensis); conditions: 320 g/ha
# Summary of the method: as §2
# rice flat sedge = assay: Test Example 3: herbicidal effect by foliage application, Wagner pot (Table 18, symbol E); assay type: in vivo, rice flat sedge (Cyperus iria); conditions: 320 g/ha
# Summary of the method: as §2
# southern crabgrass [2] = assay: Test Example 4: herbicidal effect by soil treatment (Table 19, symbol F); assay type: in vivo, southern crabgrass (Digitaria ciliaris); conditions: amount of applied herbicide 320 g/ha
# Summary of the method: (§3)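 Soil-surface application: an emulsion agent diluted with water to the predetermined dose is sprayed uniformly over seeds lying under roughly 1.5 cm of sterilized diluvial soil. Boxes stay in a greenhouse at 25° C. to 30° C. Three weeks later, each species is graded on previously defined criteria.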
# green foxtail [3] = assay: Test Example 4: herbicidal effect by soil treatment (Table 19, symbol G); assay type: in vivo, green foxtail (Setaria viridis); conditions: amount of applied herbicide 320 g/ha
# Summary of the method: as §3
# barnyard grass [4] = assay: Test Example 4: herbicidal effect by soil treatment (Table 19, symbol H); assay type: in vivo, barnyard grass (Echinochloa crus-galli); conditions: amount of applied herbicide 320 g/ha
# Summary of the method: as §3
# wild oat [5] = assay: Test Example 4: herbicidal effect by soil treatment (Table 19, symbol I); assay type: in vivo, wild oat (Avena fatua); conditions: amount of applied herbicide 320 g/ha
# Summary of the method: as §3
# blackgrass [6] = assay: Test Example 4: herbicidal effect by soil treatment (Table 19, symbol J); assay type: in vivo, blackgrass (Alopecurus myosuroides); conditions: amount of applied herbicide 320 g/ha
# Summary of the method: as §3
# Italian ryegrass [7] = assay: Test Example 4: herbicidal effect by soil treatment (Table 19, symbol K); assay type: in vivo, Italian ryegrass (Lolium multiflorum); conditions: amount of applied herbicide 320 g/ha
# Summary of the method: as §3
# windgrass [8] = assay: Test Example 4: herbicidal effect by soil treatment (Table 19, symbol L); assay type: in vivo, windgrass (Apera spica-venti); conditions: amount of applied herbicide 320 g/ha
# Summary of the method: as §3
# velvetleaf [9] = assay: Test Example 4: herbicidal effect by soil treatment (Table 19, symbol M); assay type: in vivo, velvetleaf (Abutilon theophrasti); conditions: amount of applied herbicide 320 g/ha
# Summary of the method: as §3
# redroot pigweed [10] = assay: Test Example 4: herbicidal effect by soil treatment (Table 19, symbol N); assay type: in vivo, redroot pigweed (Amaranthus retroflexus); conditions: amount of applied herbicide 320 g/ha
# Summary of the method: as §3
# lambsquarters [11] = assay: Test Example 4: herbicidal effect by soil treatment (Table 19, symbol O); assay type: in vivo, lambsquarters (Chenopodium album); conditions: amount of applied herbicide 320 g/ha
# Summary of the method: as §3
# chickweed [12] = assay: Test Example 4: herbicidal effect by soil treatment (Table 19, symbol P); assay type: in vivo, common chickweed (Stellaria media); conditions: amount of applied herbicide 320 g/ha
# Summary of the method: as §3
# false cleavers = assay: Test Example 4: herbicidal effect by soil treatment (Table 19, symbol Q); assay type: in vivo, false cleavers (Galium spurium); conditions: amount of applied herbicide 320 g/ha
# Summary of the method: as §3
# persian speedwell [13] = assay: Test Example 4: herbicidal effect by soil treatment (Table 19, symbol R); assay type: in vivo, Persian speedwell (Veronica persica); conditions: amount of applied herbicide 320 g/ha
# Summary of the method: as §3
# southern crabgrass [14] = assay: Test Example 5: herbicidal effect by foliage application, plastic box (Table 20, symbol F); assay type: in vivo, southern crabgrass (Digitaria ciliaris); conditions: amount of applied herbicide 320 g/ha; foliage application after 14-day growth; evaluated three weeks after application
# Summary of the method: (§4)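 Sow seeds spot-wise in sterilized diluvial soil; cover with ~1.5 cm soil. Grow 14 days in greenhouse, 25° C. to 30° C. Spray foliage with emulsion diluted to predetermined amount. Rate effect after 3 weeks.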
# green foxtail [15] = assay: Test Example 5: herbicidal effect by foliage application, plastic box (Table 20, symbol G); assay type: in vivo, green foxtail (Setaria viridis); conditions: amount of applied herbicide 320 g/ha; foliage application after 14-day growth; evaluated three weeks after application
# Summary of the method: as §4
# barnyard grass [16] = assay: Test Example 5: herbicidal effect by foliage application, plastic box (Table 20, symbol H); assay type: in vivo, barnyard grass (Echinochloa crus-galli); conditions: amount of applied herbicide 320 g/ha; foliage application after 14-day growth; evaluated three weeks after application
# Summary of the method: as §4
# wild oat [17] = assay: Test Example 5: herbicidal effect by foliage application, plastic box (Table 20, symbol I); assay type: in vivo, wild oat (Avena fatua); conditions: amount of applied herbicide 320 g/ha; foliage application after 14-day growth; evaluated three weeks after application
# Summary of the method: as §4
# blackgrass [18] = assay: Test Example 5: herbicidal effect by foliage application, plastic box (Table 20, symbol J); assay type: in vivo, blackgrass (Alopecurus myosuroides); conditions: amount of applied herbicide 320 g/ha; foliage application after 14-day growth; evaluated three weeks after application
# Summary of the method: as §4
# Italian ryegrass [19] = assay: Test Example 5: herbicidal effect by foliage application, plastic box (Table 20, symbol K); assay type: in vivo, Italian ryegrass (Lolium multiflorum); conditions: amount of applied herbicide 320 g/ha; foliage application after 14-day growth; evaluated three weeks after application
# Summary of the method: as §4
# windgrass [20] = assay: Test Example 5: herbicidal effect by foliage application, plastic box (Table 20, symbol L); assay type: in vivo, windgrass (Apera spica-venti); conditions: amount of applied herbicide 320 g/ha; foliage application after 14-day growth; evaluated three weeks after application
# Summary of the method: as §4
# velvetleaf [21] = assay: Test Example 5: herbicidal effect by foliage application, plastic box (Table 20, symbol M); assay type: in vivo, velvetleaf (Abutilon theophrasti); conditions: amount of applied herbicide 320 g/ha; foliage application after 14-day growth; evaluated three weeks after application
# Summary of the method: as §4
# redroot pigweed [22] = assay: Test Example 5: herbicidal effect by foliage application, plastic box (Table 20, symbol N); assay type: in vivo, redroot pigweed (Amaranthus retroflexus); conditions: amount of applied herbicide 320 g/ha; foliage application after 14-day growth; evaluated three weeks after application
# Summary of the method: as §4
# lambsquarters [23] = assay: Test Example 5: herbicidal effect by foliage application, plastic box (Table 20, symbol O); assay type: in vivo, lambsquarters (Chenopodium album); conditions: amount of applied herbicide 320 g/ha; foliage application after 14-day growth; evaluated three weeks after application
# Summary of the method: as §4
# chickweed [24] = assay: Test Example 5: herbicidal effect by foliage application, plastic box (Table 20, symbol P); assay type: in vivo, common chickweed (Stellaria media); conditions: amount of applied herbicide 320 g/ha; foliage application after 14-day growth; evaluated three weeks after application
# Summary of the method: as §4
# persian speedwell [25] = assay: Test Example 5: herbicidal effect by foliage application, plastic box (Table 20, symbol R); assay type: in vivo, Persian speedwell (Veronica persica); conditions: amount of applied herbicide 320 g/ha; foliage application after 14-day growth; evaluated three weeks after application
# Summary of the method: as §4
structure (smiles),measurement,setting,value
CCCC(=O)Oc1c(C)nn(C)c(=O)c1-c1c(-c2ccc3c(c2)OCO3)sc2cc(F)c(F)cc12 [5-036],"Herbicidal effect, A: late watergrass",late watergrass,2 (Herbicidal rate of 20% or more and less than 40%)
same,"Herbicidal effect, B: Japanese bulrush",Japanese bulrush,2 (Herbicidal rate of 20% or more and less than 40%)
same,"Herbicidal effect, C: oval-leafed pondweed",oval-leafed pondweed,2 (Herbicidal rate of 20% or more and less than 40%)
same,herbicidal effect on barnyard grass (H),barnyard grass [1],2 (Herbicidal rate of 20% or more and less than 40%)
same,herbicidal effect on Chinese sprangletop (D),Chinese sprangletop,0 (Herbicidal rate of 5% or less (almost no effect))
same,herbicidal effect on rice flat sedge (E),rice flat sedge,0 (Herbicidal rate of 5% or less (almost no effect))
same,"F: southern crabgrass, herbicidal effect grade",southern crabgrass [2],0 (Herbicidal rate of 5% or less (almost no effect))
same,"G: green foxtail, herbicidal effect grade",green foxtail [3],1 (Herbicidal rate of 5% or more and less than 20%)
same,"H: barnyard grass, herbicidal effect grade",barnyard grass [4],0 (Herbicidal rate of 5% or less (almost no effect))
same,"I: wild oat, herbicidal effect grade",wild oat [5],0 (Herbicidal rate of 5% or less (almost no effect))
same,"J: blackgrass, herbicidal effect grade",blackgrass [6],0 (Herbicidal rate of 5% or less (almost no effect))
same,"K: Italian ryegrass, herbicidal effect grade",Italian ryegrass [7],0 (Herbicidal rate of 5% or less (almost no effect))
same,"L: windgrass, herbicidal effect grade",windgrass [8],0 (Herbicidal rate of 5% or less (almost no effect))
same,"M: velvetleaf, herbicidal effect grade",velvetleaf [9],0 (Herbicidal rate of 5% or less (almost no effect))
same,"N: redroot pigweed, herbicidal effect grade",redroot pigweed [10],4 (Herbicidal rate of 70% or more and less than 90%)
same,"O: lambsquarters, herbicidal effect grade",lambsquarters [11],3 (Herbicidal rate of 40% or more and less than 70%)
same,"P: chickweed, herbicidal effect grade",chickweed [12],3 (Herbicidal rate of 40% or more and less than 70%)
same,"Q: false cleavers, herbicidal effect grade",false cleavers,0 (Herbicidal rate of 5% or less (almost no effect))
same,"R: persian speedwell, herbicidal effect grade",persian speedwell [13],3 (Herbicidal rate of 40% or more and less than 70%)
same,"Herbicidal effect by foliage application, F: southern crabgrass",southern crabgrass [14],0 (Herbicidal rate of 5% or less (almost no effect))
same,"Herbicidal effect by foliage application, G: green foxtail",green foxtail [15],0 (Herbicidal rate of 5% or less (almost no effect))
same,"Herbicidal effect by foliage application, H: barnyard grass",barnyard grass [16],0 (Herbicidal rate of 5% or less (almost no effect))
same,"Herbicidal effect by foliage application, I: wild oat",wild oat [17],0 (Herbicidal rate of 5% or less (almost no effect))
same,"Herbicidal effect by foliage application, J: blackgrass",blackgrass [18],0 (Herbicidal rate of 5% or less (almost no effect))
same,"Herbicidal effect by foliage application, K: Italian ryegrass",Italian ryegrass [19],0 (Herbicidal rate of 5% or less (almost no effect))
same,"Herbicidal effect by foliage application, L: windgrass",windgrass [20],0 (Herbicidal rate of 5% or less (almost no effect))
same,"Herbicidal effect by foliage application, M: velvetleaf",velvetleaf [21],3 (Herbicidal rate of 40% or more and less than 70%)
same,"Herbicidal effect by foliage application, N: redroot pigweed",redroot pigweed [22],1 (Herbicidal rate of 5% or more and less than 20%)
same,"Herbicidal effect by foliage application, O: lambsquarters",lambsquarters [23],3 (Herbicidal rate of 40% or more and less than 70%)
same,"Herbicidal effect by foliage application, P: chickweed",chickweed [24],5 (Herbicidal rate of 90% or more (almost completely withered))
same,"Herbicidal effect by foliage application, R: persian speedwell",persian speedwell [25],5 (Herbicidal rate of 90% or more (almost completely withered))
